Data: patent US8003081B2, “Method for improvement of tolerance for therapeutically effective agents delivered by inhalation” (priority 2004, dated 2011)
Like-named read-outs stand apart in the source and are kept apart here.

How the values were obtained:
[1] = system: mild to moderate asthma patients; settings: placebo=0.35
[2] = Shelf-life and storage stability of lidocaine formulations; assay type: physicochemical
[3] = 100 mg in 2.5 ml of 40 mg/ml solution, PARI LC PLUS nebulizer; cited from earlier work

CCN(CC)CC(=O)Nc1c(C)cccc1C [lidocaine, acetamide 2-(diethylamino)-N-(2,6-dimethylphenyl)]
AQLQ environmental domain, mean change at week 12 from baseline ([1]; 10 mg lidocaine, p=0.012 v. placebo): 2.09
AQLQ environmental domain, mean change at week 12 from baseline ([1]; 40 mg lidocaine, p=0.01 v. placebo): 2.45
stable without loss of strength ([2]; 1%, 4% or 10% solution in Blow-Fill-Seal vials with overwrap, room temperature): 9-12 months
shelf-life of the dry form ([2]; dry form): at least 2 years
duration of oral numbing of lips, tongue and mucosa with impaired gag reflex following inhalation [3]: approximately 15 minutes
